Experimental data published in article PMC8037033, “Synthesis and Rational Design of New Appended 1,2,3-Triazole-uracil Ensembles as Promising Anti-Tumor Agents via In Silico VEGFR-2 Transferase Inhibition” (Molecules, 2021).

Assays:
HUH-7 tumor cells = experiment: MTT cytotoxicity assay, HUH-7; assay type: cell-based; conditions: Homo sapiens, 72 h
Method: (§1) The cell viability was measured by MTT colourimetric assay. The cell lines viz., HeLa (human cervical adenocarcinoma), HUH-7 (human hepatoma cancer cells) and NIH/3T3 (normal murine fibroblast cells) were supplemented with 10% fetal bovine serum and maintained in an environment of 5% CO2 at 37 °C temperature. Cell lines at a density of 2 × 10^3 cells/well were seeded onto 96 well plates for 16 h and maintained in DMEM culture media. Five different concentrations of synthesized ligands and 5-fluorouracil (except for normal cells) i.e., 0.1, 0.5, 1, 5 and 10 μM were treated against each cell line and incubated for 3 days at 37 °C [56]. Then, the solutions were discarded and an MTT reagent with a final concentration of 500 μg/mL was added to each well and plate and incubated for another 4–6 h. 200 μL of DMSO was added to solubilize purple precipitates (formazan product) and absorbance (optical density) was recorded at 570 nm on ELISA reader. IC50 values were calculated using dose-response data by applying the linear regression method. The experiments were done in triplicate for each concentration of ligand.

HeLa tumor cells = experiment: MTT cytotoxicity assay, HeLa; assay type: cell-based, human; conditions: 72 h
Method: as §1

NIH/3T3 normal cells = experiment: MTT cytotoxicity assay, NIH/3T3 normal cells; assay type: cell-based, murine; conditions: Mus musculus, NIH3T3, 72 h
Method: as §1

melting point	Compound	IC50 (HUH-7 tumor cells)	IC50 (HeLa tumor cells; Homo sapiens, HeLa)	IC50 (NIH/3T3 normal cells)	IC50 (HeLa tumor cells)
–	O=c1[nH]cc(F)c(=O)[nH]1 [Compound 5-FU, 5-fluorouracil, reference compound]	30 ± 2.5 µM	4.6 ± 0.2 µM	–	–
120 to 121 °C	Cn1c(=O)cc(Cl)n(Cc2cn(-c3ccccc3)nn2)c1=O [Compound 5a, 6-Chloro-3-methyl-1-((1-phenyl-1H-1,2,3-triazol-4-yl)methyl)pyrimidine-2,4(1H,3H)-dione]	> 10 µM	11.2 ± 0.1 µM	> 10 µM	–
97 °C	Cn1c(=O)cc(Cl)n(Cc2cn(-c3ccc(F)cc3)nn2)c1=O [Compound 5b, 6-Chloro-1-((1-(4-fluorophenyl)-1H-1,2,3-triazol-4-yl)methyl)-3-methylpyrimidine-2,4(1H,3H)-dione]	> 10 µM	> 10 µM	> 10 µM	–
100 °C	Cn1c(=O)cc(Cl)n(Cc2cn(-c3ccc(Cl)cc3)nn2)c1=O [Compound 5c, 6-Chloro-1-((1-(4-chlorophenyl)-1H-1,2,3-triazol-4-yl)methyl)-3-methylpyrimidine-2,4(1H,3H)-dione]	> 10 µM	> 10 µM	> 10 µM	–
110 to 112 °C	Cn1c(=O)cc(Cl)n(Cc2cn(-c3ccc([N+](=O)[O-])cc3)nn2)c1=O [Compound 5d, 6-Chloro-3-methyl-1-((1-(4-nitrophenyl)-1H-1,2,3-triazol-4-yl)methyl)pyrimidine-2,4(1H,3H)-dione]	> 10 µM	> 10 µM	> 10 µM	–
145 to 148 °C	COc1ccc(-n2cc(Cn3c(Cl)cc(=O)n(C)c3=O)nn2)cc1 [Compound 5e, 6-Chloro-1-((1-(4-methoxyphenyl)-1H-1,2,3-triazol-4-yl)methyl)-3-methylpyrimidine-2,4-(1H,3H)-dione]	> 10 µM	> 10 µM	> 10 µM	–
115 to 118 °C	Cn1c(=O)cc(Cl)n(Cc2cn(Cc3ccccc3)nn2)c1=O [Compound 5f, 1-((1-Benzyl-1H-1,2,3-triazol-4-yl)methyl)-6-chloro-3-methylpyrimidine-2,4(1H,3H)-dione]	10.8 ± 0.5 µM	> 10 µM	> 10 µM	–
138 to 140 °C	Cn1c(=O)cc(Cl)n(Cc2cn(Cc3ccc(Br)cc3)nn2)c1=O [Compound 5g, 1-((1-(4-Bromobenzyl)-1H-1,2,3-triazol-4-yl)methyl)-6-chloro-3-methylpyrimidine-2,4(1H,3H)-dione]	> 10 µM	> 10 µM	> 10 µM	–
–	Cc1ccc(Cn2cc(Cn3c(Cl)cc(=O)n(C)c3=O)nn2)cc1 [Compound 5h, 6-Chloro-3-methyl-1-((1-(4-methylbenzyl)-1H-1,2,3-triazol-4-yl)methyl)pyrimidine-2,4(1H,3H)-dione]	7.7 ± 0.3 µM	4.5 ± 0.5 µM	> 10 µM	–
98 to 100 °C	COc1cccc(Cn2cc(Cn3c(Cl)cc(=O)n(C)c3=O)nn2)c1 [Compound 5i, 6-Chloro-1-((1-(3-methoxybenzyl)-1H-1,2,3-triazol-4-yl)methyl)-3-methylpyrimidine-2,4(1H,3H)-dione]	9 ± 0.8 µM	9 µM	> 10 µM	> 10 µM
101 to 105 °C	Cn1c(=O)cc(Cl)n(Cc2cn(Cc3cccc(Oc4ccccc4)c3)nn2)c1=O [Compound 5j, 6-Chloro-3-methyl-1-((1-(3-phenoxybenzyl)-1H-1,2,3-triazol-4-yl)methyl)pyrimidine-2,4(1H,3H)-dione]	> 10 µM	10 ± 1.5 µM	> 10 µM	–
125 to 128 °C	Cn1c(=O)cc(Cl)n(Cc2cn(Cc3nc(C4=Cc5ccccc5OC4)no3)nn2)c1=O [Compound 5k, 1-((1-((3-(2H-Chromen-3-yl)-1,2,4-oxadiazol-5-yl)methyl)-1H-1,2,3-triazol-4-yl)methyl)-6-chloro-3-methylpyrimidine-2,4(1H,3H)-dione]	> 10 µM	> 10 µM	> 10 µM	–
122 to 125 °C	COc1cccc2c1OCC(c1noc(Cn3cc(Cn4c(Cl)cc(=O)n(C)c4=O)nn3)n1)=C2 [Compound 5l, 6-Chloro-1-((1-((3-(8-methoxy-2H-chromen-3-yl)-1,2,4-oxadiazol-5-yl)methyl)-1H-1,2,3-triazol-4-yl)methyl)-3-methylpyrimidine-2,4(1H,3H)-dione]	> 10 µM	> 10 µM	> 10 µM	–
145 to 148 °C	Cc1cc(=O)oc2cc(OCCCCn3cc(Cn4c(Cl)cc(=O)n(C)c4=O)nn3)ccc12 [Compound 5m, 6-Chloro-3-methyl-1-((1-(4-((4-methyl-2-oxo-2H-chromen-7-yl)oxy)butyl)-1H-1,2,3-triazol-4-yl)methyl)pyrimidine-2,4(1H,3H)-dione]	> 10 µM	> 10 µM	> 10 µM	–
96 to 98 °C	Cn1c(=O)cc(Cl)n(Cc2cn(CCCN3C(=O)c4cccc5cccc(c45)C3=O)nn2)c1=O [Compound 5n, 2-(3-(4-((6-Chloro-3-methyl-2,4-dioxo-3,4-dihydropyrimidin-1(2H)-yl)methyl)-1H-1,2,3-triazol-1-yl)propyl)-1H-benzo[de]isoquinoline-1,3(2H)-dione]	> 10 µM	9.6 ± 1.2 µM	> 10 µM	–
100 to 102 °C	CCCCCCn1cc(Cn2c(Cl)cc(=O)n(C)c2=O)nn1 [Compound 5o, 6-Chloro-1-((1-hexyl-1H-1,2,3-triazol-4-yl)methyl)-3-methylpyrimidine-2,4(1H,3H)-dione]	> 10 µM	> 10 µM	> 10 µM	–
–	CCCCCCCCn1cc(Cn2c(Cl)cc(=O)n(C)c2=O)nn1 [Compound 5p, 6-Chloro-3-methyl-1-((1-octyl-1H-1,2,3-triazol-4-yl)methyl)pyrimidine-2,4(1H,3H)-dione]	> 10 µM	> 10 µM	> 10 µM	–
115 to 118 °C	Cn1c(=O)cc(Cl)n(Cc2cn(CCCCn3cc(Cn4c(Cl)cc(=O)n(C)c4=O)nn3)nn2)c1=O [Compound 5q, 1,1’-((Butane-1,4-diylbis(1H-1,2,3-triazole-1,4-diyl))bis(methylene))bis(6-chloro-3-methylpyrimidine-2,4(1H,3H)-dione)]	> 10 µM	> 10 µM	> 10 µM	–
114 to 115 °C	Cn1c(=O)cc(Cl)n(Cc2cn(CCCCCn3cc(Cn4c(Cl)cc(=O)n(C)c4=O)nn3)nn2)c1=O [Compound 5r, 1,1’-((Pentane-1,5-diylbis(1H-1,2,3-triazole-1,4-diyl))bis(methylene))bis(6-chloro-3-methylpyrimidine-2,4(1H,3H)-dione)]	> 10 µM	9.6 ± 0.9 µM	> 10 µM	–
